According to PMC1976805, “Preclinical pharmacokinetics of benznidazole” (British Journal of Cancer, 1984):
Values joined by “and” are separate entries in the source; they are usually repeats but may differ in a detail not shown here. Identical values can stand only once. Like-named read-outs stand apart in the source and are kept apart here.

Key:
[1] = Whole plasma pharmacokinetics in dogs (HPLC); type: in vivo, dog; settings: for AUC(0-inf) / half-life / Tmax / Vd / clearance: dog
Source text: Br. J. Cancer (1984), 50, 291-303 Preclinical pharmacokinetics of benznidazole P. Workman', R.A.S. White2, M.I. Walton', L.N. Owen2* & P.R. Twentyman' 1MRC Clinical Oncology and Radiotherapeutics Unit, MRC Centre, Hills Road, Cambridge CB2 2QH, and 2Department of Clinical Veterinary Medicine, University of Cambridge, Madingley Road, Cambridge CB3 OES, UK. […] We have investigated the detailed pharmacokinetics of benznidazole in mice, dogs and sheep to provide a data base for the estimation of doses required for chemosensitization in man. Pharmacokinetic behaviour was linear except at high doses in mice. Absorption was fairly rapid and bioavailability was complete following both i.p. administration in mice and oral administration in dogs. Elimination t4 values were longer than for MISO, being 90 min in mice, 4-5 h in sheep and 9-11 h in dogs. At doses giving linear kinetics, peak whole plasma concentrations per administered mgkg-1 were 0.75 jigml-1 for the i.p. route in mice and 1.8jugmlP' for the oral route in dogs. Though between 39 and 59% of plasma benznidazole was bound to protein, tissue penetration was generally good. Tissue/whole plasma ratios ranged from 59-99% for transplantable mouse tumours and from 14-70% for spontaneous dog neoplasms. Nervous tissue penetration was similar to that in tumours: brain/whole plasma ratios averaged between 61 and 76% in mice and 42% in dogs, while peripheral nerve/whole plasma ratios in dogs averaged 74%. Mean liver/whole plasma ratios were 42% and 71% in BALB/c and C3H/He mouse strains respectively. Only -5% of the administered dose was excreted unchanged in the urine, indicating the likelihood of extensive metabolism. […] Enhancement of CCNU response is likely to require circulating benznidazole concentrations of 10-30 pgml-1 and we predict that these will be obtained with oral doses of 6-20 mgkg- 1 in man. […] This enhancement, or chemosensitization, is usually greater than that seen in dose-limiting normal tissues, resulting in an improved therapeutic index. Because of the relatively high doses of MISO usually required for chemosensitization in mice (see above refs), and also because of its neurotoxicity in man (Dische et al., 1977), we have been interested in finding an improved chemosensitizer. […] The lipophilic ana- logue benznidazole (N-benzyl-(2-nitroimidazolyl) acetamide, Ro 07-1051; Radanil; Roche), the structure of which is shown in Figure 1, was selected for detailed study because of its ability to *Present address: Animal Health Trust, Small Animals Centre, Lanwades Park, Kennett, Newmarket, Suffolk CB8 7PN, UK. Correspondence: P. Workman. […] These findings have been confirmed independently by Siemann et al. (1983). Although benznidazole is used quite widely in South America to treat patients with the trypanosomal infection Chagas' disease or with mucotaneous Leishmaniasis (Barclay et al., 1978; Cerisola et al., 1978; Coura et al., 1978; Fava et al., 1978), apart from our preliminary studies (White et al., 1982) the only published data on its pharmaco- kinetics are for human plasma concentrations measured by polarography (Raaflub & Ziegler, 1979; Raaflub, 1980). Here we describe the pharmacokinetics of benznidazole in the mouse, sheep and dog, as determined by high-performance liquid chromatography (HPLC). […] The Macmillan Press Ltd., 1984 292 P. WORKMAN et al. particularly on plasma and tumour concentrations, have been used as a basis for the estimation of the benznidazole doses required in a Phase I trial of benznidazole plus CCNU, at present ongoing in our Unit. Materials and methods Animals and tumours Adult inbred male BALB/c mice were obtained from OLAC (Southern) Ltd. (Bicester, UK) and adult inbred C3H/He mice of both sexes from OLAC and our own breeding colony. Mice were housed in plastic cages on sawdust bedding made from soft white woods, and allowed laboratory chow and water ad lib. They were used at 20-35 g body wt.

[2] = cited from earlier work
[3] = collie crossbred, plasma, iv, 5 mg/kg, dog C, 5 mg kg-1 i.v.
[4] = collie crossbred, plasma, iv, 5 mg/kg, dog D, 5 mg kg-1 i.v.
[5] = dog A, collie crossbred 18 kg, 25 mg kg-1 oral
[6] = dog B, collie crossbred 28 kg, 25 mg kg-1 oral
[7] = man, average daily dose 3.5 mg kg-1, literature

O=C(Cn1ccnc1[N+](=O)[O-])NCc1ccccc1 [benznidazole, N-benzyl-(2-nitroimidazolyl) acetamide]
AUC(0-inf) ([1]; beagle, plasma, po, 50 mg/kg, dog E, 50 mg kg-1 oral): 760 µg·h/mL
half-life ([1]; beagle, plasma, po, 50 mg/kg, dog E, 50 mg kg-1 oral, 95% confidence limits 5.3-6.1, read-out: elimination half-life t1/2β (converted)): 5.7 h
AUC(0-inf) ([1]; beagle, plasma, po, 50 mg/kg, dog F, 50 mg kg-1 oral): 707 µg·h/mL
half-life ([1]; beagle, plasma, po, 50 mg/kg, dog F, 50 mg kg-1 oral, 95% confidence limits 6.4-7.3, read-out: elimination half-life t1/2β (converted)): 6.8 h
Tmax ([1]; collie crossbred, beagle, plasma, dogs, oral administration, usual range, read-out: time to peak plasma concentration): 1 to 5 h
Vd ([1]; collie crossbred, plasma ultrafiltrate (unbound drug), iv, 5 mg/kg, dog C, 5 mg kg-1 i.v., read-out: volume of distribution (Vd area), unbound drug data): 2.05 L/kg
Vd ([1]; collie crossbred, plasma ultrafiltrate (unbound drug), iv, 5 mg/kg, dog D, 5 mg kg-1 i.v., read-out: volume of distribution (Vd area), unbound drug data): 1.87 L/kg
half-life ([1]; collie crossbred, plasma, dogs (large crossbred), summary value, read-out: elimination t1/2): 9 to 11 h
AUC(0-inf) [1, 3]: 105 µg·h/mL
clearance [1, 3]: 0.793 mL/min/kg
half-life ([1]; collie crossbred, plasma, iv, 5 mg/kg, dog C, 5 mg kg-1 i.v., 95% confidence limits 7.1-8.1, read-out: elimination half-life t1/2β (converted)): 7.6 h
Vd ([1]; collie crossbred, plasma, iv, 5 mg/kg, dog C, 5 mg kg-1 i.v., read-out: volume of distribution (Vd area), total plasma data): 0.52 L/kg
AUC(0-inf) [1, 4]: 138 µg·h/mL
clearance [1, 4]: 0.603 mL/min/kg
half-life ([1]; collie crossbred, plasma, iv, 5 mg/kg, dog D, 5 mg kg-1 i.v., 95% confidence limits 9.2-11.4, read-out: elimination half-life t1/2β (converted)): 10.2 h
Vd ([1]; collie crossbred, plasma, iv, 5 mg/kg, dog D, 5 mg kg-1 i.v., read-out: volume of distribution (Vd area), total plasma data): 0.53 L/kg
half-life ([1]; collie crossbred, plasma, iv, 5 mg/kg, dogs C and D, 5 mg kg-1 i.v., read-out: distribution phase half-life t1/2α (estimated by back-stripping, about)): 0.167 to 0.417 h
AUC(0-inf) ([1]; collie crossbred, plasma, po, 12.5 mg/kg, dog C, 12.5 mg kg-1 oral): 419 µg·h/mL
half-life ([1]; collie crossbred, plasma, po, 12.5 mg/kg, dog C, 12.5 mg kg-1 oral, 95% confidence limits 9.7-13.3, read-out: elimination half-life t1/2β (converted)): 11.2 h
AUC(0-inf) ([1]; collie crossbred, plasma, po, 12.5 mg/kg, dog D, 12.5 mg kg-1 oral): 450 µg·h/mL
half-life ([1]; collie crossbred, plasma, po, 12.5 mg/kg, dog D, 12.5 mg kg-1 oral, 95% confidence limits 17.3-22.0, read-out: elimination half-life t1/2β (apparent) (converted)): 19.4 h
AUC(0-inf) ([1]; collie crossbred, plasma, po, 25 mg/kg, dog A, 25 mg kg-1 oral, samples collected up to 9 h only): ~800 µg·h/mL
AUC(0-inf) ([1]; collie crossbred, plasma, po, 25 mg/kg, dog B, 25 mg kg-1 oral, samples collected up to 9 h only): ~800 µg·h/mL
AUC(0-inf) ([1]; collie crossbred, plasma, po, 25 mg/kg, dog C, 25 mg kg-1 oral): 687 µg·h/mL
half-life ([1]; collie crossbred, plasma, po, 25 mg/kg, dog C, 25 mg kg-1 oral, 95% confidence limits 8.9-10.6, read-out: elimination half-life t1/2β (converted)): 9.7 h
AUC(0-inf) ([1]; collie crossbred, plasma, po, 25 mg/kg, dog D, 25 mg kg-1 oral): 804 µg·h/mL
half-life ([1]; collie crossbred, plasma, po, 25 mg/kg, dog D, 25 mg kg-1 oral, 95% confidence limits 8.9-10.6, read-out: elimination half-life t1/2β (converted)): 9.7 h
half-life ([1]; collie crossbred, plasma, po, larger crossbred dogs, oral administration, read-out: elimination t1/2, range): 9.5 to 11.2 h
peak time [1, 5]: 5 h
peak whole plasma concentration [1, 5]: 48.4 µg/mL
peak time [1, 6]: 3 h
peak whole plasma concentration [1, 6]: 52.2 µg/mL
peak time ([1]; dog C, 5 mg kg-1 i.v.): 0.083 h
peak time ([1]; dog C, 12.5 mg kg-1 oral): 1 h
peak time ([1]; dog C, 25 mg kg-1 oral): 5 h
peak whole plasma concentration ([1]; dog C, collie crossbred 28 kg, 5 mg kg-1 i.v.): 12.7 µg/mL
peak whole plasma concentration ([1]; dog C, collie crossbred 28 kg, 12.5 mg kg-1 oral): 26.5 µg/mL
peak whole plasma concentration ([1]; dog C, collie crossbred 28 kg, 25 mg kg-1 oral): 38.9 µg/mL
peak time ([1]; dog D, 5 mg kg-1 i.v.): 0.083 h
peak time ([1]; dog D, 12.5 mg kg-1 oral): 12 h
peak time ([1]; dog D, 25 mg kg-1 oral): 3 h
peak whole plasma concentration ([1]; dog D, collie crossbred 20 kg, 5 mg kg-1 i.v.): 12.4 µg/mL
peak whole plasma concentration ([1]; dog D, collie crossbred 20 kg, 12.5 mg kg-1 oral (slow, prolonged absorption)): 13.1 µg/mL
peak whole plasma concentration ([1]; dog D, collie crossbred 20 kg, 25 mg kg-1 oral): 46.5 µg/mL
peak whole plasma concentration ([1]; dog E, beagle 9 kg, 50 mg kg-1 oral): 59.8 µg/mL
peak time ([1]; dog F, 50 mg kg-1 oral): 3 h
peak whole plasma concentration ([1]; dog F, beagle 10 kg, 50 mg kg-1 oral): 54.8 µg/mL
Tmax ([1]; plasma, po, dogs, discussion summary, read-out: time of peak concentrations after oral dosing): 3 to 5 h
overall oral bioavailability (dose-normalised AUC0-∞ oral vs i.v.) ([1]; dogs C and D): about 130%
peak concentrations readily achieved ([1]; dogs, oral doses of 25-50 mg kg-1): 50 µg/mL
average peak whole plasma concentration ([1]; large crossbred dogs, 12.5 mg kg-1 oral): 20 µg/mL
average peak whole plasma concentration ([1]; large crossbred dogs, 25 mg kg-1 oral): 47 µg/mL
mean peak whole plasma concentration per administered mg kg-1 ([1]; large crossbred dogs, oral route (s.e., n=6)): 1.8 µg ml-1 and 1.77 + 0.17 µg ml-1
mean t1/2 ([2]; humans, low doses, polarographic analysis, ref Raaflub & Ziegler (1979) and Raaflub (1980)): 12 to 14 h
mean steady state maximum plasma concentration (s.e., n=6) [2, 7]: 12.4 ± 0.7 µg/mL
mean steady state minimum plasma concentration (s.e., n=6) [2, 7]: 8.3 ± 0.6 µg/mL
peak time ([2]; man, low oral doses, ref Raaflub & Ziegler, 1979): 3 to 4 h
mean peak plasma concentration per administered mg kg-1 (s.e., n=7) ([2]; man, oral, low doses (mean 1.73 mg kg-1), ref Raaflub & Ziegler, 1979): 1.48 + 0.06 µg ml-1
